The source of these data is ChEMBL document CHEMBL6096652, “Design, synthesis and anti-tumor evaluation of novel pyrimidine and quinazoline analogues” (Eur J Med Chem, 2025).

Assay [1] relates to B16-F10. Briefly: Antiproliferative activity against mouse B16-F10 cells incubated for 48 hrs by MTT assay. It is filed as functional, cell-based. Conditions: B16-F10, 48 h. (In general: Formazan colour is commonly taken as a measure of viable cells.)
Assay [2] has as its system A549. Put plainly: Antiproliferative activity against human A549 cells incubated for 48 hrs by MTT assay. It is filed as functional, cell-based. Conditions: A549, 48 h.
Assay [3] relates to HepG2. Put plainly: Antiproliferative activity against human HepG2 cells incubated for 48 hrs by MTT assay. The class given is functional, cell-based. Conditions: HepG2, 48 h.
For assay [4], the system named is MCF7. Put plainly: Antiproliferative activity against human MCF7 cells incubated for 48 hrs by MTT assay. To be noted: MCF7, 48 h. The class given is functional, cell-based.
Assay [5] has as its system B16-F10. Briefly: Inhibition of cell migration in mouse B16-F10 cells assessed as recovery of scratch area at 50 nM incubated for 24 hrs by wound healing assay (reference value: 72.97 %). The class given is functional. Set-up: scale not given: the % may be the effect or the level left.
For assay [6], the system named is B16-F10. Put plainly: Antitumor activity against mouse B16-F10 cells implanted in C57BL/6 mouse at 10 mg/kg measured after 10 days relative to control. Conditions: B16-F10, 240 h, time 10 day, read-out: TGI. The class given is functional.

Each structure is given as a SMILES string.

By IC50 is commonly meant the concentration at which inhibition is half-maximal. Consider `COc1cc(Nc2nc(-c3cc(OC)c(OC)c(OC)c3)nc3ccccc23)cc(OC)c1OC`, for which the IC50 in assay [1] was 0.132 µM; in assay [2] it was 0.396 µM; in assay [3], 0.781 µM; in assay [4], 2.94 µM.

As to `COc1cc(Nc2ccnc(-c3ccc(C#N)cc3)n2)cc(OC)c1OC`, the IC50 in assay [1] was greater than 50 µM; in assay [2], 4.76 µM; in assay [3], 4.33 µM; in assay [4], greater than 50 µM.

For the compound `COc1cc(Nc2ccnc(-c3cccc4c3cnn4C)n2)cc(OC)c1OC`, the IC50 in assay [1] is 4.57 µM; in assay [2], 5.55 µM; in assay [3] it was 5.92 µM; in assay [4], 7.12 µM.

Consider `COc1ccc(-c2nccc(Nc3cc(OC)c(OC)c(OC)c3)n2)cn1`, for which the half-maximal inhibitory concentration (IC50) in assay [1] was greater than 50 µM; in assay [2], 3.09 µM; in assay [3] it was greater than 50 µM; in assay [4], greater than 50 µM.

Consider `COc1cc(NC(=O)c2ccnc(-c3cccc4c3ccn4C)n2)cc(OC)c1OC`, for which the IC50 in assay [1] was found to be 2.28 µM; in assay [2], 3.09 µM; in assay [3] it was 1.1 µM; in assay [4] it was 1.89 µM.

Take `COc1cc(Nc2nc(-c3cccc4c3ccn4C)nc3ccccc23)cc(OC)c1OC`: the IC50 in assay [1] came out at 0.784 µM; in assay [2] it was 1.35 µM; in assay [3], 0.547 µM; in assay [4] it was 0.877 µM.

For `COc1cc(Nc2nc(-c3ccccc3)nc3ccccc23)cc(OC)c1OC`, the IC50 in assay [1] came to 0.884 µM; in assay [2], 3.96 µM; in assay [3] it was 0.807 µM; in assay [4], 4.89 µM.

`COc1cc2c(c(OC)c1OC)-c1ccc(OC)c(=O)cc1[C@@H](NC(C)=O)CC2` [COLCHICINE]: the IC50 in assay [1] turned out to be 0.079 µM; in assay [2], 0.507 µM; in assay [3], 0.038 µM; in assay [4], 0.031 µM. In assay [5], the Activity is recorded as 33.68%. In addition, the inhibition in vivo at 10 mg/kg in assay [6] is 72.8%.

With `COc1cc(NC(=O)c2ccnc(-c3ccccc3)n2)cc(OC)c1OC`, the IC50 was greater than 50 µM in assay [1], 5.38 µM in assay [2], 2.32 µM in assay [3] and greater than 50 µM in assay [4].

`COc1ccc(-c2nc(Nc3cc(OC)c(OC)c(OC)c3)c3ccccc3n2)cc1OC`: the IC50 in assay [1] was 0.331 µM; in assay [2] it was 5.6 µM; in assay [3] it was greater than 50 µM; in assay [4], greater than 50 µM.

Consider `COc1ccc(-c2nccc(Nc3cc(OC)c(OC)c(OC)c3)n2)cc1`, for which the half-maximal inhibitory concentration (IC50) in assay [1] was 2.69 µM; in assay [2], 2.22 µM; in assay [3], 1.22 µM; in assay [4], 7.27 µM.

On to `COc1ccc(-c2nccc(C(=O)Nc3cc(OC)c(OC)c(OC)c3)n2)cc1OC`, for which the IC50 in assay [1], in assay [2], in assay [3] and in assay [4] was greater than 50 µM each time.

Consider `COc1cc(Nc2ccnc(-c3ccc4c(ccn4C)c3)n2)cc(OC)c1OC`, for which the IC50 in assay [1] came out at 1.82 µM; in assay [2], 2.31 µM; in assay [3], 4.9 µM; in assay [4] it was 5.31 µM.

Regarding `COc1cc(Nc2ccnc(-c3cc(OC)c(OC)c(OC)c3)n2)cc(OC)c1OC`, the IC50 in assay [1], in assay [2], in assay [3] and in assay [4] was greater than 50 µM each time.

Regarding `COc1ccc(-c2nc(Nc3cc(OC)c(OC)c(OC)c3)c3ccccc3n2)cc1`, the concentration for half-maximal inhibition (IC50) in assay [1], in assay [2], in assay [3] and in assay [4] was greater than 50 µM throughout.

With `COc1cc(Nc2nc(-c3ccc(C)cc3)nc3ccccc23)cc(OC)c1OC`, the IC50 in assay [1] is greater than 50 µM; in assay [2], 1.83 µM; in assay [3], 2.44 µM; in assay [4] it was greater than 50 µM.

Turning to `COc1cc(Nc2ccnc(-c3ccccc3)n2)cc(OC)c1OC`, the IC50 in assay [1] was 7.2 µM; in assay [2], 4.08 µM; in assay [3], 9.2 µM; in assay [4], greater than 50 µM.

As for `COc1cc(Nc2ccnc(-c3ccc(F)cc3)n2)cc(OC)c1OC`, the IC50 was 8.25 µM in assay [1], 6.51 µM in assay [2], 7.94 µM in assay [3] and greater than 50 µM in assay [4].

Take `COc1cc(NC(=O)c2ccnc(-c3ccc(C(F)(F)F)cc3)n2)cc(OC)c1OC`: the IC50 in assay [1], in assay [2], in assay [3] and in assay [4] was greater than 50 µM in each case.

For `COc1cc(Nc2nc(-c3ccc4c(cnn4C)c3)nc3ccccc23)cc(OC)c1OC`, the IC50 amounted to 1.78 µM in assay [1], 6.47 µM in assay [2], 3.14 µM in assay [3] and 3.33 µM in assay [4].

In the case of `COc1cc(Nc2ccnc(-c3ccc(C)cc3)n2)cc(OC)c1OC`, the IC50 was found to be 7.62 µM in assay [1], 2.14 µM in assay [2], 1.85 µM in assay [3] and 5.77 µM in assay [4].

For the compound `COc1cc(Nc2ccnc(-c3ccc4c(cnn4C)c3)n2)cc(OC)c1OC`, the IC50 in assay [1] was 1.85 µM; in assay [2] it was 0.598 µM; in assay [3] it was 1.46 µM; in assay [4] it was 1.13 µM.

For the compound `COc1cc(Nc2ccnc(-c3ccc(O)c(C)c3)n2)cc(OC)c1OC`, the IC50 in assay [1] worked out at 4.97 µM; in assay [2] it was 1.08 µM; in assay [3], 6.53 µM; in assay [4], 6.74 µM.

For `COc1cc(NC(=O)c2ccnc(-c3ccc(C)cc3)n2)cc(OC)c1OC`, the IC50 was greater than 50 µM in assay [1], 6.08 µM in assay [2], greater than 50 µM in assay [3] and greater than 50 µM in assay [4].

On to `COc1cc(NC(=O)c2ccnc(-c3ccc4c(c3)OCCO4)n2)cc(OC)c1OC`, for which the IC50 in assay [1] is greater than 50 µM; in assay [2], 3.11 µM; in assay [3] it was greater than 50 µM; in assay [4], greater than 50 µM.

As to `COc1cc(Nc2nc(-c3ccc(F)cc3)nc3ccccc23)cc(OC)c1OC`, the IC50 in assay [1], in assay [2], in assay [3] and in assay [4] was greater than 50 µM in each case.
